Results published in patent US20150051262A1, “NMDA RECEPTOR MODULATORS AND USES THEREOF” (Northwestern University, priority 2011, published 2015).
Like-named read-outs stand apart in the source and are kept apart here. Residues, ends and D or L forms follow the SMILES beside them.

Tests used:
NMDA receptor = NMDA receptor (Rattus norvegicus, UniProt P35439); assay: [^3H] MK-801 binding assay; details: for Emax: read-out: Efficacy (% Increase in [^3H] MK-801 Binding)
[1] = Metabolic stability in liver microsomes, rat; format: in vitro ADME; details: Rat (M) microsomes, 1 μM
Experimental: (§1) Metabolic stability was assessed in liver microsomes as well as in hepatocytes with few compounds.
(§2) Procedure for microsomal stability: • Species: Rat and human • Test concentration: 1 μM (n=2) • Protein concentration: 0.125 mg/mL • Time points: 0, 5, 15, 30 and 60 minutes • Controls: Minus NADPH and buffer • Analysis: Parent compound monitoring LC-MS/MS (Peak area ratios)

[2] = Metabolic stability in liver microsomes, human; format: in vitro ADME; details: Human (M) microsomes, 1 μM
Experimental: as §1, §2

[3] = tested on: MDCK (Madin-Darby Canine Kidney Cells); assay: in vitro; details: concentration 5 μM; for Papp (10^−6 cm/sec): HBSS pH 7.4
Experimental: Procedure. Permeability of test compounds was assessed using MDCK (Madin-Darby Canine Kidney Cells) using the below parameters. • Test concentration: 5 μM (n=3) • Buffer: HBSS pH 7.4 • Time points: 0, 15, 30, 60 and 90 min • Analysis: Parent compound monitoring using LC-MS/MS

[4] = Kinetic aqueous solubility (pION method); format: physicochemical; details: pH 7.4, conc. tested 200 μM with 1% DMSO, 16 h incubation
[5] = Metabolic stability in hepatocytes, rat; format: in vitro ADME; details: Rat (H) hepatocytes, 10 μM
Experimental: as §1
(§3) Procedure for hepatocyte stability: • Stock preparation: DMSO • Buffer: Krebs Henseleit Buffer • Total Incubation volume: […] • Cell density: 1 million cells/mL • Test concentration: 10 μM with 0.5% DMSO (n=2) • Time points: 0 and 60 min • Analysis: LC-MS/MS

floating behavior [6] = assay: Porsolt test procedure 2; format: in vivo, Sprague Dawley rats; details: 1 hr post-dosing
Experimental: The antidepressant-like effects of test compounds were examined with the rat Porsolt test as described in Page et al. (1999) and Burgdorf et al. (2009). Male Sprague Dawley rats (2-3 month old) were used in this study. Animals were dosed with test compounds (0.3 mg/kg IV) or sterile saline vehicle (1 ml/kg IV tail vein) 1 hr before a single test session. […] Water was changed after every other animal. […] CM-6A, CM-7A, CM-8A, and CM-9A were tested in the Porsolt test. CM-5A was not tested in the Porsolt test.
Animals received a single 15 min Porsolt habituation session on the day before the first 5 min Porsolt test. N=6 per group. *P<0.05 Fisher's PLSD post hoc test vs. vehicle.

[7] = tested on: Schaffer collateral-evoked NMDA EPSCs in CA1 pyramidal neurons; assay: Long-term potentiation (LTP) assay procedure 2; format: cell-based, Sprague-Dawley rats; details: 1 μM, FIG. 8, P<0.05
Experimental: Assays were conducted as described in Zhang et al. (2008). Sprague-Dawley rats (12-18 days old; Taconic Farms) were deeply anesthetized with isoflurane and decapitated. Brains was removed rapidly, submerged in ice-cold artificial cerebrospinal fluid (ACSF, 2-4° C.), which contained (in mM): 124 NaCl, 4 KCl, 2 MgSO4, 2 CaC12, 1.25 NaH2PO4, 26 NaHCO3, 10 glucose; at pH 7.4, gassed continuously with 95% O2/5% CO2). Brains were hemisected, the frontal lobes cut off, and individual hemispheres glued using cyanoacrylate adhesive onto a stage immersed in ice-cold ACSF gassed continuously with 95% O2/5% CO2 during slicing. […] Bath application of test compounds (1 μM) was applied 30 min prior to application of Schaffer collateral stimulus trains to elicit LTP. LTP was induced by stimulation of Schaffer collateral axons with four high frequency theta burst stimulus trains of 10×100 Hz/5 pulse bursts each, applied at an inter-burst interval of 200 ms. Each train was 2 s in duration, and trains were applied 15 s apart.

[8] = Metabolic stability in hepatocytes, human; format: in vitro ADME; details: Human (H) hepatocytes, 10 μM
Experimental: as §1, §3

floating behavior [9] = assay: Porsolt test procedure 2; format: in vivo, Sprague Dawley rats; details: single dose (0.3 mg/kg IV), 24 hrs post-dosing, FIG. 11C
[10] = single dose 0.3 mg/kg IV, FIG. 11A
[11] = single dose (0.3 mg/kg IV), FIG. 11B

For `C[C@@H](O)[C@H](NC(=O)[C@@H]1CCCN1C(=O)[C@@H]1CCCN1C(=O)[C@@H](N)CO)C(N)=O` [CM-1, (S)-N-((2S,3R)-1-amino-3-hydroxy-1-oxobutan-2-yl)-1-((S)-1-((S)-2-amino-3-hydroxypropanoyl)pyrrolidine-2-carbonyl)pyrrolidine-2-carboxamide] (H-SPPT-NH2), the EC50 (NMDA receptor) was 0.005 nM.
With `C[C@@H](O)[C@H](N)C(=O)N1CCC[C@H]1C(=O)N1CCC[C@H]1C(=O)N[C@@H](CO)C(N)=O` [CM-2, (S)-N-((S)-1-amino-3-hydroxy-1-oxopropan-2-yl)-1-((S)-1-((2S,3R)-2-amino-3-hydroxybutanoyl)pyrrolidine-2-carbonyl) pyrrolidine-2-carboxamide] (H-TPPS-NH2) the “Efficacy (% Increase in [^3H] MK-801 Binding)” value (NMDA receptor; best-fit top value, 50 μM glutamate) was 24% and the EC50 (NMDA receptor; rat forebrain membranes, 50 μM glutamate, read-out: Potency (EC50)) was 0.006 nM.
`NC(=O)[C@H](CO)NC(=O)[C@@H]1CCCN1C(=O)[C@@H]1CCCN1C(=O)[C@@H](N)CO` [CM-3, (S)-N-((S)-1-amino-3-hydroxy-1-oxopropan-2-yl)-1-((S)-1-((S)-2-amino-3-hydroxy-propanoyl)-pyrrolidine-2-carbonyl)-pyrrolidine-2-carboxamide] (H-SPPS-NH2) gave an EC50 (NMDA receptor) of 0.016 nM.
For `Cc1ccc(C[C@@]2(C(=O)N[C@H](C(N)=O)[C@@H](C)O)CCCN2C(=O)[C@@H]2CCCN2C(=O)[C@@H](N)[C@@H](C)O)cc1` [CM-5A, (R)-N-((2S,3R)-1-amino-3-hydroxy-1-oxobutan-2-yl)-1-((S)-1-((2S,3R)-2-amino-3-hydroxybutanoyl)pyrrolidine-2-carbonyl)-2-(4-methylbenzyl) pyrrolidine-2-carboxamide], the “% Remaining at 60 minutes” value [1] was 95%, the “Half-life” value [1] was over 1 h and the “Stability Class” value [1] was “Stable (% Remaining >90%)”. The “% Remaining at 60 minutes” value [2] was 86%, the “Half-life” value [2] was over 1 h and the “Stability Class” value [2] was “Moderate (% Remaining 70-90%)”. The Permeability classification [3] was “Low (≦3 × 10^−6 cm/sec)”, the Recovery [3] was 100 and the “Mean Solubility (N = 3) at pH” value [4] was over 200.
`CC(O)C(N)C(=O)N1CCCC1C(=O)N1CCCC1(Cc1ccc(F)cc1)C(=O)NC(C(N)=O)C(C)O` (stereo not drawn) [CM-6] showed an Emax (NMDA receptor) of 12%.
For `C[C@@H](O)[C@H](N)C(=O)N1CCC[C@H]1C(=O)N1CCC[C@@]1(Cc1ccc(C(F)(F)F)cc1)C(=O)N[C@H](C(N)=O)[C@@H](C)O` [CM-7A, (R)-N-((2S,3R)-1-amino-3-hydroxy-1-oxobutan-2-yl)-1-((S)-1-((2S,3R)-2-amino-3-hydroxybutanoyl)pyrrolidine-2-carbonyl)-2-(4-(trifluoromethyl)benzyl) pyrrolidine-2-carboxamide], the “% Remaining at 60 minutes” value [5] was 76%, the “Half-life” value [5] was over 1 h and the “Stability Class” value [5] was “Moderate (% Remaining 70-90%)”. For the same compound, the “floating time in the Porsolt test” value (floating behavior [6]; [10]) was “produced an antidepressant-like effect”, the “floating time in the Porsolt test” value (floating behavior [6]; [11]) was “produced an antidepressant-like effect” and the “long-term potentiation after high frequency stimulation (fEPSP slope)” value (from here on “long-term potentiation … (fEPSP slope)”) [7] was “increased long-term potentiation”. For the same compound, the Permeability classification [3] was “Low (≦3 × 10^−6 cm/sec)”, the Recovery [3] was 68 and the “Papp (10^−6 cm/sec)” value [3] was 0.11 ± 0.0 10^−6 cm/sec. The “% Remaining at 60 minutes” value [8] was 92%, the “Half-life” value [8] was over 1 h and the “Stability Class” value [8] was “Stable (% Remaining >90%)”. For the same compound, the “floating time in the Porsolt test” value (floating behavior [9]) was “produced an antidepressant-like effect”.
Compound `CC(O)C(N)C(=O)N1CCCC1C(=O)N1CCCC1(Cc1ccc(C(F)(F)F)cc1)C(=O)NC(C(N)=O)C(C)O` (stereo not drawn) [CM-7] has an EC50 (NMDA receptor) of 10.6 nM and an Emax (NMDA receptor) of 13%.
With `Cc1cccc(C[C@@]2(C(=O)N[C@H](C(N)=O)[C@@H](C)O)CCCN2C(=O)[C@@H]2CCCN2C(=O)[C@@H](N)[C@@H](C)O)c1` [CM-8A, (R)-N-((2S,3R)-1-amino-3-hydroxy-1-oxobutan-2-yl)-1-((S)-1-((2S,3R)-2-amino-3-hydroxybutanoyl)pyrrolidine-2-carbonyl)-2-(3-methylbenzyl) pyrrolidine-2-carboxamide] the “% Remaining at 60 minutes” value [1] was 91%, the “Half-life” value [1] was over 1 h and the “Stability Class” value [1] was “Stable (% Remaining >90%)”. The “floating time in the Porsolt test” value (floating behavior [6]; [10]) was “produced an antidepressant-like effect”, the “floating time in the Porsolt test” value (floating behavior [6]; [11]) was “produced an antidepressant-like effect” and the “% Remaining at 60 minutes” value [2] was 75%. The “Half-life” value [2] was over 1 h, the “Stability Class” value [2] was “Moderate (% Remaining 70-90%)” and the “long-term potentiation … (fEPSP slope)” value [7] was “increased long-term potentiation”. For the same compound, the Permeability classification [3] was “Low (≦3 × 10^−6 cm/sec)”, the Recovery [3] was 83 and the “Papp (10^−6 cm/sec)” value [3] was 0.14 ± 0.01 10^−6 cm/sec. For the same compound, the “Mean Solubility (N = 3) at pH” value [4] was over 200 and the “floating time in the Porsolt test” value (floating behavior [9]) was “produced an antidepressant-like effect”.
For `Cc1cccc(CC2(C(=O)NC(C(N)=O)C(C)O)CCCN2C(=O)C2CCCN2C(=O)C(N)C(C)O)c1` (stereo not drawn) [CM-8], the EC50 (NMDA receptor) was 0.006 nM and the Emax (NMDA receptor) was 16%.
With `C[C@@H](O)[C@H](N)C(=O)N1CCC[C@H]1C(=O)N1CCC[C@@]1(Cc1cccc(F)c1)C(=O)N[C@H](C(N)=O)[C@@H](C)O` [CM-9A, (R)-N-((2S,3R)-1-amino-3-hydroxy-1-oxobutan-2-yl)-1-((S)-1-((2S,3R)-2-amino-3-hydroxybutanoyl)pyrrolidine-2-carbonyl)-2-(3-fluorobenzyl) pyrrolidine-2-carboxamide] the “% Remaining at 60 minutes” value [1] was 100%, the “Half-life” value [1] was over 1 h and the “Stability Class” value [1] was “Stable (% Remaining >90%)”. For the same compound, the “floating time in the Porsolt test” value (floating behavior [6]; [10]) was “produced an antidepressant-like effect”, the “floating time in the Porsolt test” value (floating behavior [6]; [11]) was “produced an antidepressant-like effect” and the “% Remaining at 60 minutes” value [2] was 69%. For the same compound, the “Half-life” value [2] was over 1 h, the “Stability Class” value [2] was “Unstable (% Remaining <70%)” and the “long-term potentiation … (fEPSP slope)” value [7] was “increased long-term potentiation”. For the same compound, the Permeability classification [3] was “Low (≦3 × 10^−6 cm/sec)”, the Recovery [3] was 100 and the “Mean Solubility (N = 3) at pH” value [4] was 148 ± 42. For the same compound, the “floating time in the Porsolt test” value (floating behavior [9]) was “produced an antidepressant-like effect”.
`CC(O)C(N)C(=O)N1CCCC1C(=O)N1CCCC1(Cc1cccc(F)c1)C(=O)NC(C(N)=O)C(C)O` (stereo not drawn) [CM-9] showed an EC50 (NMDA receptor) of 0.007 nM and an Emax (NMDA receptor) of 15%.
In the case of `C[C@@H](O)[C@H](NC(=O)C1(Cc2ccccc2)CCCN1C(=O)[C@@H]1CCCN1C(=O)[C@@H](N)CO)C(N)=O` (stereo partly drawn) [CM-10, N-((2S,3R)-1-amino-3-hydroxy-1-oxobutan-2-yl)-1-((S)-1-((S)-2-amino-3-hydroxypropanoyl)pyrrolidine-2-carbonyl)-2-benzylpyrrolidine-2-carboxamide], the Emax (NMDA receptor) is reported as 16%.
`COc1ccc(CC2(C(=O)N[C@H](C(N)=O)[C@@H](C)O)CCCN2C(=O)[C@@H]2CCCN2C(=O)[C@@H](N)[C@@H](C)O)cc1` (stereo partly drawn) [CM-11] showed an EC50 (NMDA receptor) of 0.013 nM and an Emax (NMDA receptor) of 9%.
Work on `CC(O)C(N)C(=O)N1CCCC1C(=O)N1CCCC1(Cc1cc(Br)cc(Br)c1)C(=O)NC(C(N)=O)C(C)O` (stereo not drawn) [CM-12] yielded an EC50 (NMDA receptor) of 2.21 nM and an Emax (NMDA receptor) of 13%.
`COc1cccc(CC2(C(=O)NC(C(N)=O)C(C)O)CCCN2C(=O)C2CCCN2C(=O)C(N)C(C)O)c1` (stereo not drawn) [CM-13] gave an Emax (NMDA receptor) of 10%.
In the case of `COc1cc(CC2(C(=O)NC(C(N)=O)C(C)O)CCCN2C(=O)C2CCCN2C(=O)C(N)C(C)O)cc(OC)c1OC` (stereo not drawn) [CM-14], the EC50 (NMDA receptor) is reported as 0.443 nM and the Emax (NMDA receptor) is reported as 8%.
In the case of `CC/C(=C(/CC)c1ccc(O)cc1)c1ccc(O)cc1` [DES, reference compound], the “Mean Solubility (N = 3) at pH” value [4] is reported as 2.6 ± 2.1.
